Laboratory results reported in PMC10150366, “Discovery of an In Vivo Chemical Probe for BCL6 Inhibition by Optimization of Tricyclic Quinolinones” (Journal of Medicinal Chemistry, 2023).
≈ marks a conversion by molar mass, not a printed value. Where “and” joins values, the source holds several entries; their conditions need not be identical. Equal entries are not always repeated. Where two headings read alike, the source gives them in different places.

Legend:
[1] = tested on: Caco-2 human colon carcinoma cell line; conditions: pH 7.4
Procedure: Caco-2 apparent permeability (Papp) was determined in the Caco-2 human colon carcinoma cell line. Cells
were maintained in DMEM with 10% fetal bovine serum, penicillin, and streptomycin in a humidified
Cells were then plated onto a cell culture assembly plate
(Millipore, UK), and monolayer confluency was tested using a TEER electrode prior to the assay. Media
specified), 1% DMSO) in the appropriate apical and basal donor wells. HBSS buffer alone was placed in
acceptor wells. The Caco-2 plate was incubated for 2 h at 37 °C. Samples from the apical and basolateral
chambers were analyzed using a Waters (Milford, MA, US) TQ-S LC-MS/MS system.
Apparent permeability (Papp) was determined as follows:
𝐏𝐚𝐩𝐩 = 𝐀 (𝐜𝐦𝟐) × 𝐂 (𝛍𝐌) × 𝐑𝐚𝐭𝐞 𝐨𝐟 𝐃𝐢𝐟𝐟𝐮𝐬𝐢𝐨𝐧 (𝛍𝐌.𝐬𝐞𝐜 )
Where Vr = volume of receptical
A = surface area of monolayer
C0 = Initial compound concentration in donor

[2] = NMR aqueous solubility assay; conditions: HEPES buffer, aqueous with cosolvent or surfactant or cyclodextrin
Procedure: Supplementary experimental: physicochemical assays
0.5 mM TCEP, 10% D2O) was pipetted into the same well and mixed by up-down pipetting 3 times to create a 0.5 mM solution or suspension containing 5% DMSO. It was then separated by centrifugation (1000 rpm
The plate was then sealed and incubated at room temperature for 20 hours,
165 µL of the supernatant was transferred to a 3 mm NMR tube (Bruker, Part No. Z112272) using liquid handler SamplePro Tube SJ S (Bruker). The concentration of the solubilized compound in solubility sample
PBS (pH 7.4) with 1% DMSO-d6).
The detail of the NMR method is as following: NMR data was collected on a Bruker Avance Neo 600 spectrometer equipped with a 5 mm TCI-CryoProbe.
The sweep width was 6.2 ppm with O1P set to 8.8 ppm, and the FID contained 16k time-domain data points. Relaxation delay was set to 20 sec. Water signal was suppressed.

[3] = Microsomal clearance, mouse liver microsomes
[4] = molecular target: T1, BCL6-SMRT (NCOR2) corepressor protein-protein interaction (Homo sapiens, UniProt P41182); experiment: NanoBRET cellular assay (HEK293T); format: cell-based; conditions: for IC90: read-out: BCL6 NanoBRET IC90 individual replicates
T1 construct: DNA encoding full length BCL6 and SMRT; expressed in transfected cells; host or cells: HEK293T
Procedure: Test compounds in DMSO or DMSO alone
concentration in 0.7% v/v DMSO final.
(also called NCOR2) corepressor protein-protein interaction. DNA encoding full length BCL6 and SMRT
fusion proteins BCL6-nanoLuc and SMRT-HaloTag, respectively. HEK293T cells were plated […] in T75
At the time of assay, compounds
dispensing (Labcyte Inc.). Frozen transfected HEK293T cells were thawed, centrifuged and freezing
DMSO final concentration.
After a short centrifugation the
(1st emission filter) / 450-80 nm (2nd emission filter). The % inhibition at each test concentration was
sigmoidal four-parameter logistic fit equation. […]

[5] = logD7.4 assay (Chrom log D method); format: physicochemical
Procedure: Calibration, validation and in-house compounds were prepared at 1mM in 10% DMSO / 90% Trizma solution (100mM Trizma in 75/25 methanol/water). 3 µL standard injections (with needle wash) of all calibration, validation and in-house samples were made onto a Phenomenex Luna C8 column (3µm, 100 x 4.6 mm, 100A, Phenomenex, Torrence, USA). Chromatographic separation at 30°C was carried out using
2 mL/min. The gradient was held at 0:100 water:organic for 0.8 minutes, then returned to the starting conditions of 95:5 water:organic for 0.2 minutes. The column was re-equilibrated for 5 minutes at the
starting conditions prior to the next injection.
Raw data was processed using Agilent Chemstation Rev.C.01.04.

human BCL6 BTB domain = human BCL6 BTB domain (Homo sapiens, UniProt P41182); experiment: BCL6 TR-FRET assay; format: binding; conditions: for BCL6 TR-FRET pIC50 mean / IC90: Table S1; for IC90: read-out: BCL6 TR-FRET IC90 Geometric Mean
Procedure: 1. Supplementary experimental: protein production, purification and crystallography 1.1 BCL6 constructs used for assays and crystallography […]
cleavage site. For the TR-FRET assay, the Trx-6His-HRV3C-BCL6 protein construct was used without cleaving the tag, as a 6His was needed to bind to the anti-6His-Terbium antibody. […]
For both plasmid constructs described above, transformed BL21-AI E. coli cells were grown in LB media […]
Expression was carried out at 18 °C for 18 hours. Cells were harvested by centrifugation (5500 g for 30 minutes at 4 °C) and stored at -80 °C.
Cells were re-suspended in a buffer composed of 20 mM Tris pH 8, 250 mM NaCl, 1 mM MgCl2, 0.5 mM […]
lysed by sonication followed by centrifugation at 21,000 g for 45 minutes at 4 °C. […]
ResourceQ and gel filtration using a HiLoad 26/60 Superdex75 column in a buffer containing 20 mM HEPES […]
The final protein was assessed for purity and molar mass by SDS-PAGE and high-resolution mass spectrometry, respectively.
For the uncleaved Trx-6His-HRV3C-BCL6 protein construct to be used in TR-FRET, the protein was directly eluted from the HisTrap FF column without HRV-3C treatment, and submitted to Superdex75 gel filtration […]
Test compounds in DMSO or DMSO alone […]
concentration in 0.7% v/v DMSO final. […]

[6] = geometric mean of at least three replicates, read-out: NanoBRET IC50
[7] = single replicates, Table S2, read-out: BCL6 NanoBRET IC50 individual replicates
[8] = geometric mean of at least three replicates, read-out: BCL6 TR-FRET IC50

Cn1c(=O)c2c(c3cc(Nc4ccnc(Cl)c4Cl)ccc31)N[C@@H](C1CC1)C(F)(F)CO2 [compound 15, (S)-2-Cyclopropyl-10-((2,3-dichloropyridin-4-yl)amino)-3,3-difluoro-7-methyl-1,2,3,4-tetrahydro-[1,4]oxazepino[2,3-c]quinolin-6(7H)-one]
Papp A→B [1]: 9.1 ×10⁻⁶ cm/s
efflux ratio [1]: 2.9
solubility kinetic at 20 h [2]: 6 µM (≈ 2.8 µg/mL)
microsomal CLint at 0.5 h, 1 µM ([3]; female, CD1, mouse, liver microsomes, pH 7.4): 24 µL/min/mg
IC90 ([4]; HEK-293T, Table S2): 796 nM
decrease in cellular potency compared to CCT372064 ([4]; NanoBRET): 5 fold
BCL6 NanoBRET pIC50 mean ([4]; Table S2): 7.1618
IC50 [4, 6]: 68 nM
IC50 [4, 7]: 106 nM and 43.5 nM and 71 nM
IC50 ([4]; supplement, read-out: BCL6 NanoBRET IC50 Geometric Mean): 68.9 nM
chromatographic logD ([5]; pH 7.4, read-out: Measured logD7.4): 3.2
BCL6 TR-FRET pIC50 mean (human BCL6 BTB domain): 7.873
IC90 (human BCL6 BTB domain): 109 nM
IC50 (human BCL6 BTB domain; [8]): 13 nM
IC50 (human BCL6 BTB domain; supplement, read-out: BCL6 TR-FRET IC50 Geometric Mean): 13.4 nM

(2S)-10-((2-(3-acetyl-3,8-diazabicyclo[3.2.1]octan-8-yl)-5-chloropyrimidin-4-yl)amino)-2-cyclopropyl-3,3-difluoro-7-methyl-1,2,3,4-tetrahydro-[1,4]oxazepino[2,3-c]quinolin-6(7H)-one [compound 7]
CLint H/M/R ([3]; one value given, mouse microsomal clearance per text): 50 μLmin^-1mg^-1
BCL6 NanoBRET pIC50 mean ([4]; Table S2): 7.3871
IC90 ([4]; Table S2): 284 nM
IC50 [4, 6]: 41 nM
IC50 [4, 7]: 28.2 nM and 47.9 nM and 51.1 nM
Measured logD7.4 [5]: 2.5
BCL6 TR-FRET pIC50 mean (human BCL6 BTB domain): 8.728
IC90 (human BCL6 BTB domain): 13.7 nM
IC50 (human BCL6 BTB domain; [8]): 1.9 nM
